Measurements from PubChem BioAssay (NCI).
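How tested: cells in 96-well plates exposed to compound for 48 hours at five concentrations. TGI denotes the concentration required for complete inhibition of growth.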

Key:
Assay in all cases: DTP human tumour cell line panel, 48 h
786-0 renal = test system: 786-0 renal
A498 renal = test system: A498 renal
A549 NSCLC = test system: A549 NSCLC
ACHN renal = test system: ACHN renal
CAKI-1 renal = test system: CAKI-1 renal
CCRF-CEM leukemia = test system: CCRF-CEM leukemia
COLO 205 colon = test system: COLO 205 colon
DLD-1 colon = test system: DLD-1 colon
DMS 114 small cell lung = test system: DMS 114 small cell lung
DMS 273 small cell lung = test system: DMS 273 small cell lung
EKVX NSCLC = test system: EKVX NSCLC
HCC-2998 colon = test system: HCC-2998 colon
HCT-116 colon = test system: HCT-116 colon
HCT-15 colon = test system: HCT-15 colon
HL-60(TB) leukemia = test system: HL-60(TB) leukemia
HOP-18 NSCLC = test system: HOP-18 NSCLC
HOP-62 NSCLC = test system: HOP-62 NSCLC
HOP-92 NSCLC = test system: HOP-92 NSCLC
HT29 colon = test system: HT29 colon
IGROV1 ovarian = test system: IGROV1 ovarian
K-562 leukemia = test system: K-562 leukemia
KM12 colon = test system: KM12 colon
KM20L2 colon = test system: KM20L2 colon
LXFL 529 NSCLC = test system: LXFL 529 NSCLC
M14 melanoma = test system: M14 melanoma
M19-MEL melanoma = test system: M19-MEL melanoma
MALME-3M melanoma = test system: MALME-3M melanoma
MOLT-4 leukemia = test system: MOLT-4 leukemia
NCI-H23 lung = test system: NCI-H23 lung
NCI-H460 lung = test system: NCI-H460 lung
OVCAR-3 ovarian = test system: OVCAR-3 ovarian
OVCAR-4 ovarian = test system: OVCAR-4 ovarian
OVCAR-5 ovarian = test system: OVCAR-5 ovarian
OVCAR-8 ovarian = test system: OVCAR-8 ovarian
RPMI-8226 leukemia = test system: RPMI-8226 leukemia
RXF 393 renal = test system: RXF 393 renal
RXF-631 renal = test system: RXF-631 renal
SF-268 CNS = test system: SF-268 CNS
SF-295 CNS = test system: SF-295 CNS
SF-539 CNS = test system: SF-539 CNS
SK-MEL-2 melanoma = test system: SK-MEL-2 melanoma
SK-MEL-28 melanoma = test system: SK-MEL-28 melanoma
SK-MEL-5 melanoma = test system: SK-MEL-5 melanoma
SK-OV-3 ovarian = test system: SK-OV-3 ovarian
SN12C renal = test system: SN12C renal
SNB-19 CNS = test system: SNB-19 CNS
SNB-75 CNS = test system: SNB-75 CNS
SNB-78 CNS = test system: SNB-78 CNS
SW-620 colon = test system: SW-620 colon
TK-10 renal = test system: TK-10 renal
U251 CNS = test system: U251 CNS
UACC-257 melanoma = test system: UACC-257 melanoma
UACC-62 melanoma = test system: UACC-62 melanoma
XF 498 CNS = test system: XF 498 CNS
LOX IMVI melanoma = test system: LOX IMVI melanoma
NCI-H226 lung = test system: NCI-H226 lung
NCI-H522 lung = test system: NCI-H522 lung
UO-31 renal = test system: UO-31 renal

Measured: TGI

COC(=O)[C@@]12C=CC(=O)[C@H]3C[C@@H](C(C(C)C)C1)[C@]32OC (stereo partly drawn)
not listed: LOX IMVI melanoma | NCI-H226 lung | NCI-H522 lung | UO-31 renal
> 100 µM: all other assays above

COc1ccccc1NC(=O)C(CC(C(=O)Nc1ccccc1OC)/C(C)=N/NC(=O)c1ccccc1O)/C(C)=N/NC(=O)c1ccccc1O (stereo not drawn)
not listed: HCT-116 colon | HCT-15 colon | HOP-18 NSCLC | UACC-62 melanoma
> 100 µM: all other assays above
